From patent US20250082914A1 (priority 2022, published 2025)

Legend:
[1] = In vitro drug release, USP device type II, SGF then SIF; type: physicochemical; conditions: after switch from SGF pH 1.2 (30 min) to SIF pH 6.8; 37° C., 100 rpm; 8 mm device, 20 mg desmopressin, 40 mg PVP, enteric capsule
Protocol: The temperature was set at 37° C., and the rotating speed was at 100 rpm. Aliquots of 1 mL were sampled at the predetermined time points and the sampled volume was replaced with fresh SGF or SIF buffer. Quantification was carried by HPLC (VWR Hitachi Chromaster system with 5160 pump, 5260 autosampler, 5310 column oven and 5430 diode array detector, VWR International, Radnor, PA) with the UV wavelength set at 280 nm. […] At the intestinal pH, desmopressin started being released when the solvent was switched to SIF and was completely released within about 20 minutes. […] The drug release kinetics is also controlled with the polymeric excipient.

[2] = in the presence of permeation enhancers; cited from earlier work

time to complete release of desmopressin [1]	Molecule	oral bioavailability [2]
≤ 20 min	NC(=O)CC[C@@H]1NC(=O)[C@H](Cc2ccccc2)NC(=O)[C@H](Cc2ccc(O)cc2)NC(=O)CCSSC[C@@H](C(=O)N2CCC[C@H]2C(=O)N[C@H](CCCN=C(N)N)C(=O)NCC(N)=O)NC(=O)[C@H](CC(N)=O)NC1=O [desmopressin]	–
–	C[C@@H](O)[C@@H]1NC(=O)[C@H](CCCCN)NC(=O)[C@@H](Cc2c[nH]c3ccccc23)NC(=O)[C@H](Cc2ccccc2)NC(=O)[C@@H](NC(=O)[C@H](N)Cc2ccccc2)CSSC[C@@H](C(=O)N[C@H](CO)[C@@H](C)O)NC1=O [octreotride]	0.5-1%
–	semaglutide	~1%
